# Test results: US20220235094A1, “CRYSTALLINE FORMS OF ANTIDEPRESSANT DRUG SAGE-217 AND PREPARATION METHOD THEREFOR” (priority 2019, published 2022)
# Entries after “also recorded” stand apart in the source; their conditions may differ.
# Legend:
# [1] = Crystalline form stability under different temperature and humidity conditions; assay type: physicochemical
# Experimental: The samples of crystalline form 04 prepared in Example 1 were taken, and placed at 25° C./60% humidity and 40° C./75% humidity for 1 month; placed at 2-8° C. for 9 months: after the placement, the above-mentioned samples were taken out and tested for the crystalline form.
# [2] = Stability compared between crystalline forms
# [3] = Crystalline form stability as exposed powder and in sealed vial; conditions: for crystalline form stability in a sealed vial: 25° C./45% RH
# [4] = Thermodynamic solubility test in water; assay type: physicochemical; conditions: 25° C., 24 hours; for Area: HPLC
# Experimental: Thermodynamic solubility test: the solid powder was added to water to a saturated solution, and then the suspension liquid was stirred under magnetic stirring at 25° C. for 24 hours. After completion, it was filtered with a 0.20 μm filter and analyzed by HPLC. Tests were carried out in parallel, and each group was tested twice to take the average.
# [5] = DVS test (moisture adsorption isotherm, hygroscopicity); assay type: physicochemical
# Experimental: The sample of crystalline form 04 prepared in Example 1 was placed on a microbalance plate in a sealed sample chamber, and then exposed to different relative humidity, the relative humidity ranged from […] to 90%, and changed in 10% increments. At each humidity level, the sample is balanced when dm/dt is less than 0.002% within 10 minutes. The mass of the dried sample and the equilibrium mass at each humidity level were recorded, and the weight change was plotted against relative humidity, which is the moisture adsorption isotherm of the sample.
# Regarding the description of hygroscopicity characteristics and the definition of hygroscopic weight gain (Appendix XIX J of Chinese Pharmacopoeia 2010 Edition, Guidelines for Hygroscopicity, with experimental conditions: 25±1° C., 80% relative humidity):
# Deliquescent: sufficient water is absorbed to form liquid
# Extremely hygroscopic: the increase in mass is not less than 15%
# Hygroscopic: the increase in mass is less than 15% but not less than 2%
# Slightly hygroscopic: the increase in mass is less than 2% but not less than 0.2%
# Practical nonhygroscopic: the increase in mass is less than 0.2%.
# [6] = Mechanical pressure stability, XRPD after 2 tons of pressure; assay type: physicochemical; conditions: 2 tons of mechanical pressure; for XRPD change after mechanical pressure: 100 mg sample
# Experimental: To further evaluate the mechanical stability of the crystalline form 04 of the present application and the crystalline form K reported in WO 2018/039378 A1, a 100 mg sample was subjected to 2 tons of mechanical pressure, and the recovered tablets were gently ground and tested by XRPD.
Compound,"Crystalline form after storage ([1]; 0-8° C., 9 months)","Crystalline form after storage ([1]; 2-8° C., 9 months)",stability compared with other crystalline forms [2],time stable in the exposed powder state [3],crystalline form stability in a sealed vial [3],Concentration (thermodynamic solubility) ([4]; Average),Concentration (thermodynamic solubility) ([4]; Group 1),Concentration (thermodynamic solubility) ([4]; Group 2),Area ([4]; Average),Area ([4]; Group 1),Area ([4]; Group 2),XRPD change after mechanical pressure [6],other results
"C[C@@]1(O)CC[C@H]2[C@H](CC[C@@H]3[C@@H]2CC[C@]2(C)[C@@H](C(=O)Cn4cc(C#N)cn4)CC[C@@H]32)C1 [crystalline form D-1, 1-(2-((3R,5R,8R,9R,10S,13S,14S,17S)-3-hydroxy-3,13-dimethylhexadecahydro-1H-cyclopenta[a]phenanthren-17-yl)-2-oxoethyl)-1H-pyrazole-4-carbonitrile]",the crystalline form remains,the crystalline form did not change,better stability than crystalline form D,18 h,more than seven days,,,,,,,,
"C[C@@]1(O)CC[C@H]2[C@H](CC[C@@H]3[C@@H]2CC[C@]2(C)[C@@H](C(=O)Cn4cc(C#N)cn4)CC[C@@H]32)C1 [crystalline form 06, 1-(2-((3R,5R,8R,9R,10S,13S,14S,17S)-3-hydroxy-3,13-dimethylhexadecahydro-1H-cyclopenta[a]phenanthren-17-yl)-2-oxoethyl)-1H-pyrazole-4-carbonitrile]",,,,16 h,more than seven days,,,,,,,,
"C[C@@]1(O)CC[C@H]2[C@H](CC[C@@H]3[C@@H]2CC[C@]2(C)[C@@H](C(=O)Cn4cc(C#N)cn4)CC[C@@H]32)C1 [crystalline form 04, 1-(2-((3R,5R,8R,9R,10S,13S,14S,17S)-3-hydroxy-3,13-dimethylhexadecahydro-1H-cyclopenta[a]phenanthren-17-yl)-2-oxoethyl)-1H-pyrazole-4-carbonitrile]",the crystalline form remains,form 04,,,more than seven days,0.4375 µg/mL,0.4506 µg/mL,0.4243 µg/mL,12.2 mAu*s,12.6 mAu*s,11.8 mAu*s,no obvious change,"Crystalline form after storage ([1]; 25° C., 60% relative humidity, 1 month): stored stably for one month without change; also recorded: form 04; Crystalline form after storage ([1]; 40° C., 75% relative humidity, 1 month): stored stably for one month without change; also recorded: form 04; time stable in the exposed powder state ([3]; time in words): one day; hygroscopicity ([5]; DVS curve): no or almost no hygroscopicity; also recorded: no hygroscopicity; water absorption ([5]; DVS, 25° C., relative humidity changed from 40%/0 to 90%): 0.06%; mechanical / physical stability compared with crystalline form K [6]: better than that of the crystalline form K; also recorded: better mechanical stress stability"
"C[C@@]1(O)CC[C@H]2[C@H](CC[C@@H]3[C@@H]2CC[C@]2(C)[C@@H](C(=O)Cn4cc(C#N)cn4)CC[C@@H]32)C1 [crystalline form 08, 1-(2-((3R,5R,8R,9R,10S,13S,14S,17S)-3-hydroxy-3,13-dimethylhexadecahydro-1H-cyclopenta[a]phenanthren-17-yl)-2-oxoethyl)-1H-pyrazole-4-carbonitrile]",,,relatively low stability,,,,,,,,,,
"C[C@@]1(O)CC[C@H]2[C@H](CC[C@@H]3[C@@H]2CC[C@]2(C)[C@@H](C(=O)Cn4cc(C#N)cn4)CC[C@@H]32)C1 [crystalline form D-2, 1-(2-((3R,5R,8R,9R,10S,13S,14S,17S)-3-hydroxy-3,13-dimethylhexadecahydro-1H-cyclopenta[a]phenanthren-17-yl)-2-oxoethyl)-1H-pyrazole-4-carbonitrile]",,,better stability than crystalline form D,18 h,more than seven days,,,,,,,,
"C[C@@]1(O)CC[C@H]2[C@H](CC[C@@H]3[C@@H]2CC[C@]2(C)[C@@H](C(=O)Cn4cc(C#N)cn4)CC[C@@H]32)C1 [crystalline form K, 1-(2-((3R,5R,8R,9R,10S,13S,14S,17S)-3-hydroxy-3,13-dimethylhexadecahydro-1H-cyclopenta[a]phenanthren-17-yl)-2-oxoethyl)-1H-pyrazole-4-carbonitrile, reference compound]",,,,,,0.398 µg/mL,0.3927 µg/mL,0.4032 µg/mL,11.1 mAu*s,10.9 mAu*s,11.2 mAu*s,a slight decrease in its crystallinity,
